Source: ChEMBL document CHEMBL5108050, “Discovery of a New Class of Uracil Derivatives as Potential Mixed Lineage Kinase Domain-like Protein (MLKL) Inhibitors” (J Med Chem, 2022)
Activity calls are given as the source filed them. No cut-off for these calls is given here.

Columns and labels:
HT-29 [1] = experiment: Anti-necroptic activity in human HT-29 cells assessed as inhibition of TSZ (TNFalpha, Smac mimetic and z-VAD-FMK) induced necroptosis incubated for 24 hrs by celltiter-glo luminescent cell viability assay; format: functional, cell-based; conditions: HT-29, 24 h
HT-29 [2] = experiment: Anti-necroptic activity in human HT-29 cells assessed as inhibition of TSZ induced necroptosis incubated for 5 min followed by compound washout and further induced with TSZ by celltiter-glo luminescent cell viability assay; format: functional, cell-based; conditions: HT-29, 5 min
HT-29 [3] = experiment: Anti-necroptic activity in human HT-29 cells assessed as inhibition of TSZ induced necroptosis incubated for 1 hr followed by compound washout and further induced with TSZ by celltiter-glo luminescent cell viability assay; format: functional, cell-based; conditions: HT-29, 1 h
HT-29 [4] = experiment: Anti-necroptic activity in human HT-29 cells assessed as inhibition of TSZ induced necroptosis incubated for 3 hr followed by compound washout and further induced with TSZ by celltiter-glo luminescent cell viability assay; format: functional, cell-based; conditions: HT-29, 3 h
[5] = GSH reactivity in DPBS buffer assessed as fold decrease in reaction rate by UPLC-MS analysis relative to control; format: ADME
[6] = biological target: T1, Mixed lineage kinase domain-like protein (Homo sapiens) (UniProt Q8NB16); experiment: Covalent binding affinity to human recombinant MLKL at Cys86 residue assessed as covalent additive product formation by LC-MS/MS analysis
T1 sequence (whole entry): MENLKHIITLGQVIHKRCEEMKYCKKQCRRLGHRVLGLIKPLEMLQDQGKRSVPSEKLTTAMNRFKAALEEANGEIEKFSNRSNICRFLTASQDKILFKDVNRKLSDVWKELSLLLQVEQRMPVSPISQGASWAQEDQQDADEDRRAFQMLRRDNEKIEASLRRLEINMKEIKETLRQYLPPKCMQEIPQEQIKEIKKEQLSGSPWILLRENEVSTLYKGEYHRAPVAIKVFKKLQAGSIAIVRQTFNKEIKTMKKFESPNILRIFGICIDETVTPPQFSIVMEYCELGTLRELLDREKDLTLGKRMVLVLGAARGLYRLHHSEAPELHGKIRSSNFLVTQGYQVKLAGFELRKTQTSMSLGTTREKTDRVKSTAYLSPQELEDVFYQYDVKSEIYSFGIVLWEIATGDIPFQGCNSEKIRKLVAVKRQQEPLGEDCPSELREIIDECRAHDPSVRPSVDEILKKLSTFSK

[7] = biological target: T1, Mixed lineage kinase domain-like protein (Homo sapiens); experiment: Displacement of biotin-tagged TCI3136 binding from human recombinant MLKL at Cys86 residues in human HT-29 cell lysate assessed as biotin labeled ligand-protein complex pull down at 5 uM preincubated with compound for 1 hr followed by probe addition for 1 hrs and further incubated with biotinylation of probe by click chemistry reaction for 2 hrs by pull-down assay; format: subcellular; conditions: time 4.0 hrs
[8] = biological target: T1, Mixed lineage kinase domain-like protein (Homo sapiens); experiment: Inhibition of human MLKL in human HT-29 cells assessed as inhibition of TSZ (TNFalpha, Smac mimetic and z-VAD-FMK) induced MLKL oligomerization at 1 uM and measured after 6 hrs by immunoblot assay; format: cell-based
[9] = biological target: T1, Mixed lineage kinase domain-like protein (Homo sapiens); experiment: Inhibition of human MLKL in human HT-29 cells assessed as inhibition of TSZ (TNFalpha, Smac mimetic and z-VAD-FMK) induced MLKL translocation to cell membrane at 1 uM and measured after 8 hrs by western blot analysis; format: cell-based
HT-29 [10] = experiment: Anti-necroptic activity in human HT-29 KO cells expressing MLKL K157A mutant assessed as inhibition of TSZ (TNFalpha, Smac mimetic and z-VAD-FMK) induced MLKL K157A mutant mediated necroptosis incubated for 24 hrs by celltiter-glo luminescent cell viability assay; format: functional, cell-based
HT-29 [11] = experiment: Anti-necroptic activity in human HT-29 cells assessed as inhibition of TSZ induced necroptosis incubated for 3 hrs followed by TSZ stimulation by celltiter-glo luminescent cell viability assay; format: functional, cell-based; conditions: HT-29, 3 h
[12] = biological target: Receptor-interacting serine/threonine-protein kinase 3 (Homo sapiens) (UniProt Q9Y572); experiment: Inhibition of full length RIP3 (unknown origin) assessed as substrate phosphorylation using MBP and ATP as substrate at 1 uM preincubated for 15 mins followed by substrate addition and measured after 90 mins by ADP-Glo luminescence assay; values are per cent of control; conditions: time 105.0 min
[13] = biological target: Receptor-interacting serine/threonine-protein kinase 3 (Homo sapiens) (UniProt Q9Y572); experiment: Inhibition of full length RIP3 (unknown origin) assessed as substrate phosphorylation using MBP and ATP as substrate at 10 uM preincubated for 15 mins followed by substrate addition and measured after 90 mins by ADP-Glo luminescence assay; values are per cent of control; conditions: time 105.0 min
[14] = biological target: T2, Receptor-interacting serine/threonine-protein kinase 1 (Homo sapiens) (UniProt Q13546); experiment: Inhibition of RIP1 (1 to 375 residues) (unknown origin) assessed as substrate phosphorylation using MBP and ATP as substrate at 10 uM preincubated for 15 mins followed by substrate addition and measured after 90 mins by ADP-Glo luminescence assay; values are per cent of control; conditions: time 105.0 min
T2 sequence (whole entry): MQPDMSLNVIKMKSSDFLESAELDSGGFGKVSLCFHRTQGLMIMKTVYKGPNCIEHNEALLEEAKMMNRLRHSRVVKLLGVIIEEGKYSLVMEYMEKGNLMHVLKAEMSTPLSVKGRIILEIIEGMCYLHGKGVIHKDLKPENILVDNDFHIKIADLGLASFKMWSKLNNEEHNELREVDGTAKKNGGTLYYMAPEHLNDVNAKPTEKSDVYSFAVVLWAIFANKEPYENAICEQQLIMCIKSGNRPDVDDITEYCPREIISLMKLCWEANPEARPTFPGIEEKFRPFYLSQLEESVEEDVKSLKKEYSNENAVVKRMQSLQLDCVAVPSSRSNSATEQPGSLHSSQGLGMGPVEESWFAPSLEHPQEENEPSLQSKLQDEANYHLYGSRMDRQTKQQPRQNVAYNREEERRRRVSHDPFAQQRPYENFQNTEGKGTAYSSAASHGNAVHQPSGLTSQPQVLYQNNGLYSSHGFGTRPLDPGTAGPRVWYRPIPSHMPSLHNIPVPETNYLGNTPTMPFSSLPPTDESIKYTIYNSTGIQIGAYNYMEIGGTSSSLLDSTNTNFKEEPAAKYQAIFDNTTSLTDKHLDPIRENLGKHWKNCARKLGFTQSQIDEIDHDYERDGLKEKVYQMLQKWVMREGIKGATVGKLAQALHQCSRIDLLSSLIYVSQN

[15] = biological target: T2, Receptor-interacting serine/threonine-protein kinase 1 (Homo sapiens); experiment: Inhibition of TSZ (TNFalpha, Smac mimetic and z-VAD-FMK) induced RIPK1 phosphorylation in human HT-29 cells assessed as decrease in phosphorylated RIPK1 level incubated for 8 hrs by western blot analysis; format: cell-based
MEF = experiment: Anti-necroptic activity in mouse MEF cells assessed as inhibition of TSZ (TNFalpha, Smac mimetic and z-VAD-FMK) induced necroptosis incubated for 24 hrs by celltiter-glo luminescent cell viability assay; format: functional, cell-based
[16] = biological target: T1, Mixed lineage kinase domain-like protein (Homo sapiens); experiment: (§1) Inhibition of FLAG-tagged human MLKL in human HT-29 cells assessed as inhibition of TSZ (TNFalpha, Smac mimetic and z-VAD-FMK) induced MLKL phosphorylation at 1 uM and measured after 8 hrs by Hoechst 33342 staining based immunofluorescence analysis; format: cell-based
[17] = biological target: T1, Mixed lineage kinase domain-like protein (Homo sapiens); experiment: as §1, with “phosphorylation by measuring dispersed phosphorylated MLKL in cytoplasm” for “phosphorylation”; format: cell-based
[18] = biological target: T2, Receptor-interacting serine/threonine-protein kinase 1 (Homo sapiens); experiment: Inhibition of RIP1 (1 to 375 residues) (unknown origin) assessed as substrate phosphorylation using MBP and ATP as substrate at 1 uM preincubated for 15 mins followed by substrate addition and measured after 90 mins by ADP-Glo luminescence assay; values are per cent of control; conditions: time 105.0 min
[19] = biological target: T1, Mixed lineage kinase domain-like protein (Homo sapiens); experiment: Inhibition of human MLKL in human HT-29 cells assessed as inhibition of TSZ (TNFalpha, Smac mimetic and z-VAD-FMK) induced MLKL oligomerization at 5 uM and measured after 6 hrs by immunoblot assay; format: cell-based
[20] = biological target: T1, Mixed lineage kinase domain-like protein (Homo sapiens); experiment: Inhibition of human MLKL in human HT-29 cells assessed as inhibition of TSZ (TNFalpha, Smac mimetic and z-VAD-FMK) induced MLKL oligomerization at 200 nM and measured after 6 hrs by immunoblot assay; format: cell-based
HT-29 [21] = experiment: Anti-necroptic activity in human HT-29 KO cells expressing MLKL F148A mutant assessed as inhibition of TSZ (TNFalpha, Smac mimetic and z-VAD-FMK) induced MLKL F148A mutant mediated necroptosis incubated for 24 hrs by celltiter-glo luminescent cell viability assay; format: functional, cell-based
[22] = GSH reactivity in DPBS buffer assessed as conjugation half life by UPLC-MS analysis; format: ADME; conditions: glutathione (GSH) in DPBS buffer

Sequence of Receptor-interacting serine/threonine-protein kinase 3 (Homo sapiens) (Q9Y572 whole entry, looked up, the tested form may be a part): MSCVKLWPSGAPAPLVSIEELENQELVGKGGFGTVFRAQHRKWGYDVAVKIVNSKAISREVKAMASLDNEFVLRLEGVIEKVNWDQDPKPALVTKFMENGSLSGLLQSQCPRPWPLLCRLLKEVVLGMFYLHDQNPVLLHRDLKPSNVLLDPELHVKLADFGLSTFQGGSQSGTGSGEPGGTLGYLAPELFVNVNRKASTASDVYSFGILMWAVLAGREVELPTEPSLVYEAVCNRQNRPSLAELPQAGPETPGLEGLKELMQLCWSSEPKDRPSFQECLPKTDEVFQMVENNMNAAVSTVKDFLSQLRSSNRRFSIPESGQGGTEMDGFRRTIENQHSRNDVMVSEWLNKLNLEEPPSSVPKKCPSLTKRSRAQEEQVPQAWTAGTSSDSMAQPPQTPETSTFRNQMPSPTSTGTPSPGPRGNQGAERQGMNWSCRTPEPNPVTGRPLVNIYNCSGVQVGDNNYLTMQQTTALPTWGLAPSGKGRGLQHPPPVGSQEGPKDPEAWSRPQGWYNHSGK

Row | Compound | EC50 (HT-29 [1]) [nM] | fold change (FC) [5] | Activity [7] | inhibition [8] | inhibition [9] | inhibition (HT-29 [10]) | residual activity [12] [%] | residual activity [13] [%] | residual activity [14] [%] | other results
1 | Cc1ccc(CCC(=O)Nc2c(Cl)n(CC#Cc3ccc(O)c(Cn4ccccc4=O)c3)c(=O)n(C)c2=O)cc1 | 82 | 150 | Active | Active | Active | Active | 100 | 99.8 | 82.6 | EC50 (HT-29 [2]): > 10 µM; EC50 (HT-29 [3]): 584 nM; EC50 (HT-29 [4]): 180 nM; Activity [6]: Active; EC50 (HT-29 [11]): 188 nM
2 | CCC(C)(C)C(=O)N(O)Cc1ccccc1 |  |  |  |  |  |  |  |  |  | inhibition [15]: Active; inhibition (MEF): Active; inhibition [16]: Active
3 | COc1cccn(Cc2cc(C#CCn3c(Cl)c(NC(=O)CCc4ccc(C)cc4)c(=O)n(C)c3=O)ccc2O)c1=O | 31 | 150 | Active | Active | Active | Active | 110 | 110 | 101 | inhibition [17]: Active; residual activity [18]: 117%
4 | COc1nccnc1NSc1ccc(NC(=O)/C=C/c2ccc([N+](=O)[O-])s2)cc1 |  |  |  |  |  | Active |  |  |  | inhibition [19]: Active
5 | Cn1c(=O)c2c(nc(S(C)(=O)=O)n2C)n(CC#Cc2cccc(O)c2)c1=O | 2 |  |  |  |  | Active |  |  |  | inhibition [20]: Active; inhibition (HT-29 [21]): Active; half-life [22]: 20 min
